From patent EP4464318A1, “TARGETING TGF-B-ACTIVATED KINASE-1 ACTIVATION IN THE TREATMENT OF NEUROINFLAMMATORY CONDITIONS” (Albert-Ludwigs-Universität Freiburg, priority 2023, dated 2024)

What was measured:
TAK1 = molecular target: T1, TAK1 (Homo sapiens, UniProt O43318); details: cited from earlier work
T1 sequence (O43318 1-606): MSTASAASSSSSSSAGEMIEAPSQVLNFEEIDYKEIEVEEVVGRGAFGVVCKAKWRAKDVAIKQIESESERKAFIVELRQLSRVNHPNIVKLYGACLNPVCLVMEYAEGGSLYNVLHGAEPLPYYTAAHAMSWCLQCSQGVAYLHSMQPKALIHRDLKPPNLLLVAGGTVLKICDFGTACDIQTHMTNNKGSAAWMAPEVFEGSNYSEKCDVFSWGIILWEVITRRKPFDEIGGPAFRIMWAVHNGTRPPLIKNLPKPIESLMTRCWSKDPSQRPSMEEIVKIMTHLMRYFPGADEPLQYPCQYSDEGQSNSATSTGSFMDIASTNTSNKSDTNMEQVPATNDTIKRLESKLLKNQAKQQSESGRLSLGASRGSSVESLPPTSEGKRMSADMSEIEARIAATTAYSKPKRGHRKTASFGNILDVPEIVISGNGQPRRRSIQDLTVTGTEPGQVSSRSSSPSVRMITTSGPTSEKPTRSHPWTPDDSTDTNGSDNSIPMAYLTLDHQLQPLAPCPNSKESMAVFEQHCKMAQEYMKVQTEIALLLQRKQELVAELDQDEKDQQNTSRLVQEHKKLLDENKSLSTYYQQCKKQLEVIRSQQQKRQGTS

[1] = system: B-ALL (E2A-PBX1) bearing mice treated with CD19 CAR T cells; assay: Elevated plus maze test; type: in vivo; details: CAR19 T cells, CSF1R inhibitor diet vs control diet, from one week prior to tumor injection (Fig. 4)
Procedure: (§1) Mice were treated with either takinib (Selleckchem, Germany) or vehicle after B-NHL or B-ALL transplantation. For the treatment, stocks of 3 mg/ml and 10 mg/ml of takinib were prepared in DMSO. The stocks were diluted in 0.5% carboxymethylcellulose solution (vehicle) and administered by intraperitoneal injection at a dosage of 0.15 mg/kg (takinib-FACS) and 0.5 mg/kg (survival and behaviour studies) per mouse per day from day 3 to day 9 following either B-NHL or B-ALL transplant, as described previously (13a). An equal volume of corresponding vehicles was administrated to the control groups daily from day 3 until day 9. For survival expriments, 0.5 mg/kg takinib or vehicle per mouse per day was administered intraperitonially from day 3 to day 11 following either B-NHL or B -ALL transplant, as described previously.
(§2) The E2A-PBX1 cell line (15a) was provided by Dr. Federico Simonetta (Stanford, USA). […] The mice were perfused with ice cold PBS on day 10 and the CNS was analysed. […]
(§3) Mice received PLX5622 (CSF1R inhibitor) chow or control chow (Research Diets) for 7 days prior to the experiment to achieve microglial depletion. […] The effectiveness of microglia depletion was determined by flow cytometry.
We performed the elevated plus maze test to evaluate the anxiety behaviour in mice as described previously with minor modifications (18a). […] We quantified the time they spent in the open arm in minutes. […]

[2] = system: B-ALL (E2A-PBX1) bearing mice treated with CD19 CAR T cells; assay: Novel object recognition test; type: in vivo; details: CAR19 T cells, CSF1R inhibitor diet vs control diet, from one week prior to tumor injection (Fig. 4)
Procedure: as §1, with “For survival expriments, 0.5 mg/kg takinib or vehicle per mouse per day was administered intraperitonially from day 3 to day 11 following either B-NHL or B -ALL transplant, as described previously.” left out
as §2, §3
Novel object recognition test was performed as described previously with modifications (17a). […] The amount of time spent by the mouse exploring the novel object to the total exploration time is calculated as an index of recognition memory.

[3] = system: B-ALL (E2A-PBX1) bearing mice treated with CD19 CAR T cells; assay: Grip strength test; type: in vivo
Procedure: as §1
(§4) The E2A-PBX1 cell line (15a) was provided by Dr. Federico Simonetta (Stanford, USA). C57BI/6 recipients were sublethally irradiated with 5.5 Gy and transplanted with 2×10^5 E2A-PBX1 cells intravenously. […] The mice were perfused with ice cold PBS on day 10 and the CNS was analysed. […]
Mice received PLX5622 (CSF1R inhibitor) chow or control chow (Research Diets) for 7 days prior to the experiment to achieve microglial depletion. […] The effectiveness of microglia depletion was determined by flow cytometry. […]

[4] = system: B-ALL (E2A-PBX1) bearing mice treated with CD19 CAR T cells; assay: BBB leakage (FITC-dextran extravasation) in the CNS; type: in vivo
Procedure: as §1, §4, §3

[5] = system: microglia (CD45lo CD11b+); assay: Microglial depletion: flow cytometry of CNS cells of B-ALL bearing mice; type: in vivo
Procedure: (§5) Mice received PLX5622 (CSF1R inhibitor) chow or control chow (Research Diets) for 7 days prior to the experiment to achieve microglial depletion. C57BI/6 mice were irradiated with 5.5 Gy and transplanted with 2×10^5 E2A-PBX1 cell lines. 10×10^6 CD19 CAR T were injected on day 7 and behaviour studies were performed on day 10. Mice were maintained on PLX5622 chow or control chow throughout the duration of the experiment. The effectiveness of microglia depletion was determined by flow cytometry.
(§6) The CNS cells were isolated as described previously (20a) with modifications. Briefly, the mice were anesthetized and were perfused with 1X cold PBS. The CNS was isolated, homogenized and filtered through a 70 µm nylon filter. The homogenate was suspended in 37% isotonic Percoll solution and centrifuged at 800 × g for 30 min without a break in application. The myelin layer was removed from the top of 37% Percoll and the pelleted cells were washed with 1X PBS for further analysis.

B-ALL (E2A-PBX1) = assay: Tumor burden and myeloid cells in spleen and BM of B-ALL bearing mice on CSF1R inhibitor diet; type: in vivo
Procedure: as §5

[6] = system: microglia (CD45lo CD11b+); assay: Flow cytometry of microglia from the CNS of B-NHL (A20) bearing mice treated with CD19 CAR T cells; type: in vivo
Procedure: as §1
A20 Luc^+ GFP^+ immortalized murine lymphoma cell lines were used to induce B-NHL in mice. BALB/c recipients were sublethally irradiated with 4.5 Gy and transplanted with 1×10^6 A20 Luc^+ GFP^+ intravenously. 7 days later 10×10^6 syngeneic CD19 CAR T cells generated from BALB/c mice were administered. The mice were perfused with Ice cold PBS on day 10 and CNS was analysed. For survival experiments BALB/c recipients were sublethally irradiated with 4.5 Gy and transplanted intravenously with 1×10^5 A20 Luc^+ GFP^+ cells. Seven days later 5×10^6 syngeneic CD19 CAR T cells from BALB/c mice were administered. Tumor burden was checked by bioluminescence imaging.
as §6

[7] = system: NK1.1+, CD45+, CD11b+ and CD3+ cells; assay: Immune cell counts in spleen and BM of B-NHL (A20) bearing mice that received CD19 CAR T cells; type: in vivo; details: takinib i.p. day 3 to day 9 vs vehicle (Fig. 24, 25)
Procedure: as §1
(§7) A20 Luc^+ GFP^+ immortalized murine lymphoma cell lines were used to induce B-NHL in mice. BALB/c recipients were sublethally irradiated with 4.5 Gy and transplanted with 1×10^6 A20 Luc^+ GFP^+ intravenously. 7 days later 10×10^6 syngeneic CD19 CAR T cells generated from BALB/c mice were administered. The mice were perfused with Ice cold PBS on day 10 and CNS was analysed. For survival experiments BALB/c recipients were sublethally irradiated with 4.5 Gy and transplanted intravenously with 1×10^5 A20 Luc^+ GFP^+ cells. […]

B-NHL (A20) = B-NHL (A20) lymphoma burden in vivo (bioluminescence, CD19+ cells in bone marrow); details: CAR19/takinib vs CAR19/vehicle treated mice (Fig. 8a,b)
Procedure: as §1, §7

B-NHL (A20) cells [8] = assay: Co-culture of B-NHL (A20) cells with NT or CD19 CAR T cells in vitro; type: cell-based; details: co-culture E:T 5:1, 10µM takinib or vehicle (Fig. 8c)
Procedure: A20 Luc^+ GFP^+ cells were stained with cell trace violet as per the manufacturer's instructions (Life Technologies). A20 Luc^+ GFP^+ cells and CD19 CAR T cells were incubated at ratios 1:1, 2:1, 5:1, and 10:1 for 16h at 37° C. Following incubation, cells were harvested and stained with live/dead far red fixable viability stain (Invitrogen).
(§8) B-NHL cells were labelled with cell trace violet (Invitrogen) as per the manufacturer's instructions. B-NHL cells and NT or CD19 CAR T cells were cultured with 0:1, 1:1, 1:5 and 1:10 ratios for 16-20h. Post-incubation cells were washed and stained for live dead zombie stain and specific lysis was calculated. For analyzing the expression of T cell markers, B-NHL and NT or CD19 CAR T cells were co-cultured at a ratio of 1:5 for 16-20h and treated with either 10µM of takinib or vehicle.

B-NHL (A20) cells [9] = assay: Viability of B-NHL (A20) cells, 24h; type: cell-based, murine; details: indicated concentrations of takinib, 24h (Fig. 28a)
B-ALL (E2A-PBX1) cells = assay: Viability of B-ALL (E2A-PBX1) cells, 24h; type: cell-based, murine; details: indicated concentrations of takinib, 24h (Fig. 28b)
CD19 CAR T cells = assay: T cell markers and T cell viability in co-culture of B-NHL and NT/CD19 CAR T cells; type: cell-based
Procedure: as §8

B-NHL (A20) bearing mice = assay: Survival of B-NHL (A20) bearing mice that received CD19 CAR T cells; type: in vivo
Procedure: as §1
A20 Luc^+ GFP^+ immortalized murine lymphoma cell lines were used to induce B-NHL in mice. […] The mice were perfused with Ice cold PBS on day 10 and CNS was analysed. […]
(§9) For sample size in the murine survival experiments a power analysis was performed. A sample size of at least n=8 per group was determined by 80% power to reach a statistical significance of 0.05 in order to detect an effect size of at least 1.06. Differences in animal survival (Kaplan-Meier survival curves) were analyzed by Mantel Cox test. […]

[10] = system: B-ALL (E2A-PBX1) bearing mice; assay: Survival of B-ALL (E2A-PBX1) bearing mice that received CD19 CAR T cells; type: in vivo
Procedure: as §1, §2, §9

## CCCn1c(NC(=O)c2cccc(C(N)=O)c2)nc2ccc(CN3CCCCC3)cc21 [HS-276]
TAK1
  IC50: 2.3 nM
  Ki: 2.5 nM

## COc1ncc(F)cc1CNc1ccc(Cc2c[nH]c3ncc(C)cc23)c(F)n1 [PLX5622]
[1]
  neurocognitive deficits, elevated plus maze test: improved neurocognitive deficits
[2]
  neurocognitive deficits, novel object recognition test: improved neurocognitive deficits
[3]; CAR19 T cells, CSF1R inhibitor diet vs control diet (Fig. 4)
  grip strength: no difference
[4]; CAR19 T cell-treated mice, CSF1R inhibitor (PLX5622) diet vs control diet (Fig. 23)
  BBB leakage: did not reduce
[5]; PLX5622 diet day -7 to day 10 vs control (Fig. 21b-d)
  microglia numbers: declined
[5]; PLX5622 diet vs control diet (Fig. 21e-g)
  CD45hi, Ly6G+ and Ly6C+ myeloid cells infiltrating the CNS: no significant changes
B-ALL (E2A-PBX1); CSF1R inhibitor diet vs control diet (Fig. 22c,d)
  Ly6C+ and F4/80+ myeloid cells in the spleen: no impact
B-ALL (E2A-PBX1); CSF1R inhibitor prior to CAR19 T cell transfer vs vehicle-treated mice (Fig. 22a,b)
  lymphoma burden in spleen and BM: did not reduce

## COCCN1CCN(Cc2ccc(-c3n[nH]c4c3C(=O)c3c(NC(=O)NN5CCOCC5)cccc3-4)cc2)CC1 [RGB-286638 free base]
TAK1
  IC50: 5 nM

## CCCn1/c(=N/C(=O)c2cccc(C(N)=O)c2)[nH]c2ccccc21 [Takinib]
[6]; takinib 0.15 mg/kg per mouse per day i.p. day 3 to day 9 vs vehicle (Fig. 6b,c)
  expression of TNF in microglia: reduced expression
[6]; takinib 0.15 mg/kg per mouse per day i.p. day 3 to day 9 vs vehicle (Fig. 6f,g)
  p38 phosphorylation in microglia: reduced
[6]; takinib 0.15 mg/kg per mouse per day i.p. day 3 to day 9 vs vehicle (Fig. 6d,e)
  expression of GM-CSF in microglia: reduced expression
[6]; takinib 0.5 mg/kg per mouse per day i.p. day 3 to day 9 vs vehicle (Fig. 6h,i)
  p70s6K total protein in microglia: reduced
[7]
  myeloid cell, T cell or NK cell counts in the periphery: did not reduce
[3]; CAR19 T cells + takinib vs vehicle (Fig. 6l)
  grip strength: no difference
[4]; B-ALL (E2A-PBX1) bearing mice after CAR19 T cell transfer, takinib vs vehicle (Fig. 6m, 26a)
  BBB leakage in the cortex: trend towards a lower BBB leakage
B-NHL (A20)
  B-NHL (A20) lymphoma burden: decreased
B-NHL (A20) cells [8]
  cytotoxicity against B-NHL (A20) in vitro: increased cytotoxicity
B-NHL (A20) cells [9]
  cell death of B-NHL (A20) cells: dose-dependent cell death
B-ALL (E2A-PBX1) cells
  cell death of B-ALL (E2A-PBX1) cells: dose-dependent cell death
CD19 CAR T cells; CD3+ T cells, co-culture 1:5, 10µM takinib or vehicle (Fig. 29a-g)
  markers of cytotoxicity including perforin, CD107a, IFN-y, and TNF: remained unaffected
CD19 CAR T cells; co-culture with B-NHL (A20), 10µM takinib or vehicle (Fig. 29h)
  viability of CAR19 or NT T cells: remained unaffected
B-NHL (A20) bearing mice; CAR19/takinib vs CAR19/vehicle treated B-NHL bearing mice, 0.5 mg/kg i.p. (Fig. 8d)
  survival: survived longer
[10]; CAR19/takinib vs CAR19/vehicle, E2a-PBX1 model, 0.5 mg/kg i.p. (Fig. 8f)
  survival: increased

## C[C@]12C=CC(=O)C=C1CC[C@@H]1[C@@H]2[C@@H](O)C[C@@]2(C)[C@H]1CC[C@]2(O)C(=O)CO [prednisolone]
B-NHL (A20) bearing mice; B-NHL (A20) bearing mice, prednisolone day 3 to day 9 (Fig. 8e)
  protective effect of CAR19 T cells against lymphoma growth: reduced
[10]; B-ALL (E2a-PBX1) bearing mice, prednisolone day 3 to day 9 (Fig. 8g)
  protective effect of CAR19 T cells against leukemia expansion: reduced
